PubChem BioAssay (NCI)
“And” between values parts separate entries of the source, which are not always exact repeats. Identical values can stand only once.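 Briefly, cells in 96-well plates were exposed to five compound concentrations for 48 h, and endpoints were estimated by linear interpolation. At the GI50, growth is halved. At the TGI there is no net growth.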 Where a SMILES comes first, the peptide text is derived from it. Bridges are numbered along the chain shown (N, C = ends). [ ]: non-standard residue; d: D form. The star is where a group is joined. ξ: configuration not given here. ξNMePhe(4-NMe2) = CNC(Cc1ccc(N(C)C)cc1)C(=O)O; Picolinoyl(3-OH) = O=C(c1ncccc1O)*; ξPip(4-oxo) = O=C1CCNC(C(=O)O)C1; Phg = N[CH](C(=O)O)c1ccccc1; Abu = CC[CH](N)C(=O)O

Columns and labels:
Assay in all cases: DTP human tumour cell line panel, 48 h
BT-549 breast = test system: BT-549 breast
HOP-92 NSCLC = test system: HOP-92 NSCLC
NCI-H226 lung = test system: NCI-H226 lung
NCI-H23 lung = test system: NCI-H23 lung
UACC-257 melanoma = test system: UACC-257 melanoma
786-0 renal = test system: 786-0 renal
A498 renal = test system: A498 renal
CCRF-CEM leukemia = test system: CCRF-CEM leukemia
HL-60(TB) leukemia = test system: HL-60(TB) leukemia
HT29 colon = test system: HT29 colon
M14 melanoma = test system: M14 melanoma
MCF7 breast = test system: MCF7 breast
NCI-H460 lung = test system: NCI-H460 lung
PC-3 prostate = test system: PC-3 prostate
SF-268 CNS = test system: SF-268 CNS
SK-OV-3 ovarian = test system: SK-OV-3 ovarian
SNB-19 CNS = test system: SNB-19 CNS
SW-620 colon = test system: SW-620 colon
T-47D breast = test system: T-47D breast
U251 CNS = test system: U251 CNS

## CCC1NC(=O)C(NC(=O)c2ncccc2O)C(C)OC(=O)C(c2ccccc2)NC(=O)C2CC(=O)CCN2C(=O)C(Cc2ccc(N(C)C)cc2)N(C)C(=O)C2CCCN2C1=O (stereo not drawn) (tested in a mixture with another compound) ({Picolinoyl(3-OH)}-T[Abu]P[ξNMePhe(4-NMe2)][ξPip(4-oxo)][Phg]; ester 1-C; configuration not given here)
BT-549 breast
  TGI: 53.2 µM
HOP-92 NSCLC
  TGI: 25.5 µM
NCI-H226 lung
  TGI: 42.1 µM
NCI-H23 lung
  TGI: 34.5 µM
UACC-257 melanoma
  TGI: 22.3 µM

## Nc1ncnc2c(C3OC(CO)C(O)C3O)nsc12 (stereo not drawn)
786-0 renal
  TGI: > 100 µM
A498 renal
  TGI: 1.41 µM
CCRF-CEM leukemia
  TGI: 16.5 µM and > 100 µM
HL-60(TB) leukemia
  GI50: 1.52 µM
  TGI: 7.5 µM
HT29 colon
  TGI: > 100 µM
M14 melanoma
  TGI: > 75 µM
MCF7 breast
  TGI: > 100 µM
NCI-H460 lung
  TGI: > 100 µM
PC-3 prostate
  GI50: 4.6 µM
SF-268 CNS
  TGI: > 100 µM
SK-OV-3 ovarian
  GI50: 3.25 µM
  TGI: 20.3 µM
SNB-19 CNS
  TGI: > 100 µM
SW-620 colon
  TGI: > 100 µM
T-47D breast
  GI50: < 0.0162 µM
  TGI: > 48.6 µM
U251 CNS
  TGI: > 100 µM
